Values quoted from earlier work, collected in PubChem BioAssay AID1259409 (Chemical Carcinogenesis Research Information System (CCRIS), 2018).

Test system: rodent chemically induced tumor inhibition, incidence and multiplicity
Experiment: CCRIS tumor inhibitor studies

## C[C@]12CC[C@@H]3c4ccc(O)cc4CC[C@H]3[C@@H]1CC[C@@H]2O
Carcinogen: DIETHYLNITROSAMINE, 55-18-5, Dose [Inhibitor]: 0, 0.5-1 MG IN PELLET IMPLANTED 1/MONTH FOR 26 WK BEGINNING 30 D POST CARCINOGEN TREATMENT. DOSING BEGAN SAME DAY OF ORC, Route [Inhibitor]: SUBCUTANEOUS, Species: MOUSE, Strain/Sex: B6C3F1/MALE, Target Tissue: Type of Lesion: LIVER: TUMOR, Dose [Carcinogen]: 2.5 UG/G BW IN SALINE ONCE, Promoter: NONE
  tumour outcome (control, treated, inhibition, significance): 19/30 (63%), 6/23 (26%), 59%, not significant
Carcinogen: N-ETHYL-N-NITROSOUREA, 759-73-9, Dose [Inhibitor]: 0, 0.1 MG PELLET IMPLANTED WITHIN 24 HR OF BIRTH AND REPLACED EVERY 2 MO (STUDY DURATION: 8 MO), Route [Inhibitor]: SUBCUTANEOUS IMPLANT, Species: RAT, Strain/Sex: WF X LE F1/FEMALE, Target Tissue: Type of Lesion: TRIGEMINAL NERVE: SCHWANNOMA, Dose [Carcinogen]: 40 MG/KG ONCE WITHIN 24 HR OF BIRTH, Promoter: NONE USED
  tumour outcome (control, treated, inhibition, significance): 14/19 (74%), 12/20 (60%), 19%, not calculated
Carcinogen: N-ETHYL-N-NITROSOUREA, 759-73-9, Dose [Inhibitor]: 0, 0.1 MG PELLET IMPLANTED WITHIN 24 HR OF BIRTH AND REPLACED EVERY 2 MO (STUDY DURATION: 8 MO), Route [Inhibitor]: SUBCUTANEOUS IMPLANT, Species: RAT, Strain/Sex: WF X LE F1/MALE, Target Tissue: Type of Lesion: KIDNEY: TUMOR, Dose [Carcinogen]: 40 MG/KG ONCE WITHIN 24 HR OF BIRTH, Promoter: NONE USED
  outcome: 0/21 (0%), 7/22 (32%), -100%, not calculated
Carcinogen: N-ETHYL-N-NITROSOUREA, 759-73-9, Dose [Inhibitor]: 0, 0.1 MG PELLET IMPLANTED WITHIN 24 HR OF BIRTH AND REPLACED EVERY 2 MO (STUDY DURATION: 8 MO), Route [Inhibitor]: SUBCUTANEOUS IMPLANT, Species: RAT, Strain/Sex: WF X LE F1/MALE, Target Tissue: Type of Lesion: TRIGEMINAL NERVE: SCHWANNOMA, Dose [Carcinogen]: 40 MG/KG ONCE WITHIN 24 HR OF BIRTH, Promoter: NONE USED
  tumour outcome (control, treated, inhibition, significance): 19/21 (91%), 13/22 (59%), 35%, p<0.05
Carcinogen: N-METHYL-N-NITROSOUREA, 684-93-5, Dose [Inhibitor]: 0, 2.5 MG IN CHOLESTEROL PELLET IMPLANTED 2 WK PRIOR TO CARCINOGEN DOSE AND REPLACED EVERY 4 WK (STUDY DURATION: 36 WK), Route [Inhibitor]: SUBCUTANEOUS IMPLANT, Species: RAT, Strain/Sex: F344/FEMALE, Target Tissue: Type of Lesion: MAMMARY GLAND: CARCINOMA, Dose [Carcinogen]: 50 MG/KG BW ONCE, Promoter: NONE USED
  tumour outcome (control, treated, inhibition, significance): 10/20 (50%), 1/28 (4%), 92%, p<0.01
Carcinogen: N-METHYL-N-NITROSOUREA, 684-93-5, Dose [Inhibitor]: 0, 2.5 MG IN CHOLESTEROL PELLET IMPLANTED AT TIME OF CARCINOGEN DOSE AND REPLACED EVERY 4 WK (STUDY DURATION: 35 WK), Route [Inhibitor]: SUBCUTANEOUS IMPLANT, Species: RAT, Strain/Sex: F344/MALE, Target Tissue: Type of Lesion: MAMMARY GLAND: CARCINOMA, Dose [Carcinogen]: 50 MG/KG BW ONCE, Promoter: NONE USED
  tumour outcome (control, treated, inhibition, significance): 10?20 (50%), 7/16 (44%), 12%, not significant
Carcinogen: N-METHYL-N-NITROSOUREA, 684-93-5, Dose [Inhibitor]: 0, 20 UG IN SILASTIC CAPSULES FOR 3 WK IMPLANTED 2 WK POST CARCINOGEN TREATMENT (STUDY DURATION: 10 MO), Route [Inhibitor]: SUBCUTANEOUS, Species: RAT, Strain/Sex: LEWIS/FEMALE, Target Tissue: Type of Lesion: MAMMARY GLAND: TUMOR, Dose [Carcinogen]: 50 MG/KG BW ONCE AT 7 WK OF AGE
  tumour outcome (control, treated, inhibition, significance): 11/11 (100%), 8/11 (73%), 27%, not significant
Carcinogen: N-METHYL-N-NITROSOUREA, 684-93-5, Dose [Inhibitor]: 0, 30 MG IN SILASTIC CAPSULES FOR 3 WK IMPLANTED 2 WK POST CARCINOGEN TREATMENT (STUDY DURATION: 10 MO), Route [Inhibitor]: SUBCUTANEOUS, Species: RAT, Strain/Sex: LEWIS/FEMALE, Target Tissue: Type of Lesion: MAMMARY GLAND: TUMOR, Dose [Carcinogen]: 50 MG/KG BW ONCE AT 7 WK OF AGE
  tumour outcome (control, treated, inhibition, significance): 11/11 (100%), 2/12 (17%), 83%, p<0.001
Carcinogen: N-METHYL-N-NITROSOUREA, 684-93-5, Dose [Inhibitor]: 0, 100 UG IN SILASTIC CAPSULES FOR 2 WK IMPLANTED 2 WK POST CARCINOGEN TREATMENT (STUDY DURATION: 10 MO), Route [Inhibitor]: SUBCUTANEOUS, Species: RAT, Strain/Sex: LEWIS/FEMALE, Target Tissue: Type of Lesion: MAMMARY GLAND: TUMOR, Dose [Carcinogen]: 50 MG/KG BW ONCE AT 7 WK OF AGE
  tumour outcome (control, treated, inhibition, significance): 13/15 (87%), 7/16 (44%), 49%, p<0.05
Carcinogen: N-METHYL-N-NITROSOUREA, 684-93-5, Dose [Inhibitor]: 0, 100 UG IN SILASTIC CAPSULES FOR 3 WK IMPLANTED 2 WK POST CARCINOGEN TREATMENT (STUDY DURATION: 10 MO), Route [Inhibitor]: SUBCUTANEOUS, Species: RAT, Strain/Sex: LEWIS/FEMALE, Target Tissue: Type of Lesion: MAMMARY GLAND: TUMOR, Dose [Carcinogen]: 50 MG/KG BW ONCE AT 7 WK OF AGE
  tumour outcome (control, treated, inhibition, significance): 11/11 (100%), 2/12 (17%), 83%, p<0.001
Carcinogen: N-METHYL-N-NITROSOUREA, 684-93-5, Dose [Inhibitor]: 0, 200 UG IN SILASTIC CAPSULES FOR 1 WK IMPLANTED 2 WK POST CARCINOGEN TREATMENT (STUDY DURATION: 10 MO), Route [Inhibitor]: SUBCUTANEOUS, Species: RAT, Strain/Sex: LEWIS/FEMALE, Target Tissue: Type of Lesion: MAMMARY GLAND: TUMOR, Dose [Carcinogen]: 50 MG/KG BW ONCE AT 7 WK OF AGE
  tumour outcome (control, treated, inhibition, significance): 13/15 (87%), 3/15 (20%), 77%, p<0.01
Carcinogen: N-METHYL-N-NITROSOUREA, 684-93-5, Dose [Inhibitor]: 0, 200 UG IN SILASTIC CAPSULES FOR 3 WK IMPLANTED 2 WK POST CARCINOGEN TREATMENT (STUDY DURATION: 10 MO), Route [Inhibitor]: SUBCUTANEOUS, Species: RAT, Strain/Sex: LEWIS/FEMALE, Target Tissue: Type of Lesion: MAMMARY GLAND: TUMOR, Dose [Carcinogen]: 50 MG/KG BW ONCE AT 7 WK OF AGE
  tumour outcome (control, treated, inhibition, significance): 11/11 (100%), 2/12 (17%), 83%, p<0.001

## CC(C)=CCC/C(C)=C/COc1ccc2ccc(=O)oc2c1
Carcinogen: AZOXYMETHANE, 25843-45-2, Dose [Inhibitor]: 0, 0.01% IN DIET FOR 4 WK BEGINNING 1 WK PRIOR TO CARCINOGEN TREATMENT (STUDY DURATION: 38 WK), Route [Inhibitor]: ORAL, Species: RAT, Strain/Sex: F344/MALE, Target Tissue: Type of Lesion: COLON: ADENOCARCINOMA, Dose [Carcinogen]: 15 MG/KG BW 1/WK FOR 3 WK, Promoter: NONE
  tumour outcome (control, treated, inhibition, significance): 60%, 34%, 43%, not significant
Carcinogen: AZOXYMETHANE, 25843-45-2, Dose [Inhibitor]: 0, 0.01% IN DIET FOR 34 WK BEGINNING 1 WK POST LAST CARCINOGEN DOSE (STUDY DURATION: 38 WK), Route [Inhibitor]: ORAL, Species: RAT, Strain/Sex: F344/MALE, Target Tissue: Type of Lesion: COLON: ADENOCARCINOMA, Dose [Carcinogen]: 15 MG/KG BW 1/WK FOR 3 WK, Promoter: NONE
  tumour outcome (control, treated, inhibition, significance): 60%, 24%, 60%, p<0.021
Carcinogen: AZOXYMETHANE, 25843-45-2, Dose [Inhibitor]: 0, 0.05% IN DIET FOR 4 WK BEGINNING 1 WK PRIOR TO CARCINOGEN TREATMENT (STUDY DURATION: 38 WK), Route [Inhibitor]: ORAL, Species: RAT, Strain/Sex: F344/MALE, Target Tissue: Type of Lesion: COLON: ADENOCARCINOMA, Dose [Carcinogen]: 15 MG/KG BW 1/WK FOR 3 WK, Promoter: NONE
  tumour outcome (control, treated, inhibition, significance): 60%, 20%, 67%, p<0.0075
Carcinogen: AZOXYMETHANE, 25843-45-2, Dose [Inhibitor]: 0, 0.05% IN DIET FOR 34 WK BEGINNING 1 WK POST LAST CARCINOGEN DOSE (STUDY DURATION: 38 WK), Route [Inhibitor]: ORAL, Species: RAT, Strain/Sex: F344/MALE, Target Tissue: Type of Lesion: COLON: ADENOCARCINOMA, Dose [Carcinogen]: 15 MG/KG BW 1/WK FOR 3 WK, Promoter: NONE
  tumour outcome (control, treated, inhibition, significance): 60%, 20%, 67%, p<0.0075
Carcinogen: DIETHYLNITROSAMINE [55-18-5], Dose [Inhibitor]: 500 PPM IN DIET FOR 7 WKS, STARTING 1 WK BEFORE CARCINOGEN (STUDY DURATION: 32 WKS), Route [Inhibitor]: DIET, Species: RAT, Strain/Sex: F344/MALE, Target Tissue: Type of Lesion: LIVER: ADENOMA, Dose [Carcinogen]: 40 PPM FOR 5 WKS (STUDY DURATION: 32 WKS)
  tumour outcome (control, treated, inhibition, significance): 46%, 46%, 0%
Carcinogen: DIETHYLNITROSAMINE [55-18-5], Dose [Inhibitor]: 500 PPM IN DIET FOR 7 WKS, STARTING 1 WK BEFORE CARCINOGEN (STUDY DURATION: 32 WKS), Route [Inhibitor]: DIET, Species: RAT, Strain/Sex: F344/MALE, Target Tissue: Type of Lesion: LIVER: CARCINOMA, Dose [Carcinogen]: 40 PPM FOR 5 WKS (STUDY DURATION: 32 WKS)
  tumour outcome (control, treated, inhibition, significance): 100%, 63%, 37%
Carcinogen: DIETHYLNITROSAMINE [55-18-5], Dose [Inhibitor]: 500 PPM IN DIET FOR 25 WKS BEGINNING 1 WK AFTER END OF CARCINOGEN TREATMENT, Route [Inhibitor]: DIET, Species: RAT, Strain/Sex: F344/MALE, Target Tissue: Type of Lesion: LIVER: ADENOMA, Dose [Carcinogen]: 40 PPM FOR 5 WKS (STUDY DURATION: 32 WKS)
  tumour outcome (control, treated, inhibition, significance): 46%, 42%, 8.7%
Carcinogen: DIETHYLNITROSAMINE [55-18-5], Dose [Inhibitor]: 500 PPM IN DIET FOR 25 WKS BEGINNING 1 WK AFTER END OF CARCINOGEN TREATMENT, Route [Inhibitor]: DIET, Species: RAT, Strain/Sex: F344/MALE, Target Tissue: Type of Lesion: LIVER: CARCINOMA, Dose [Carcinogen]: 40 PPM FOR 5 WKS (STUDY DURATION: 32 WKS)
  tumour outcome (control, treated, inhibition, significance): 100%, 33%, 67%
